The values that follow come from patent publication US20080269298A1, “Benzimidazol-1-YL-thiophene compounds for the treatment of cancer” (priority 2002, published 2008).

In test [1] the test system is colon (HCT116) tumor cell line. The test is described as follows: Methylene Blue Growth Inhibition Assay, HCT116. It is filed as cell-based. To be noted: Homo sapiens, HCT-116, 72 h; Cell Line HCT116, 3 days; read-out: MeB IC50. The method in brief:
(§1)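 Growth inhibition is measured as methylene blue-stained biomass (OD 620 nm) after 3 days of compound treatment, relative to vehicle controls. Cells grow in high-glucose DMEM with 10% FBS and 0.3% final DMSO; IC50 comes from nonlinear regression.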

In test [2] the test system is Normal Human foreskin fibroblasts (HFF). The test is described as follows: Methylene Blue Growth Inhibition Assay, HFF. It is filed as cell-based. The conditions noted are these: 72 h, Cell Line HFF, 3 days, read-out: MeB IC50. In a few lines:
(§2)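 3-day compound exposure, 0.3% DMSO, 37° C/10% CO2; DMEM + 10% FBS. Seeding: HFF 5,000, RKO 2,500, H460 2,000 cells/well. Readout methylene blue stain, solubilized in N-lauroyl sarcosine, OD 620 nm. IC50 vs vehicle, Levenberg-Marquardt fit.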

Another test has as its target T1, PLK1 kinase domain (Homo sapiens, UniProt P53350).
T1 construct: made in house; host or cells: baculovirus-infected T. ni insect cells
The test is described as follows: Assay for Inhibition of PLK1 (SPA enzyme activity). It is filed as biochemical. The conditions noted are these: 2 μM ATP, read-out: Ave pIC50 PLK Enzyme Inhibition (converted).

In test [3] the test system is colon (RKO) tumor cell line. Description: Methylene Blue Growth Inhibition Assay, RKO. To be noted: Homo sapiens, 72 h, 3 days, read-out: MeB IC50. It is filed as cell-based. In a few lines: as §2
The next test concerns A549. The test is described as follows: Methylene Blue Growth Inhibition Assay, A549. It is filed as cell-based. The conditions noted are these: Homo sapiens; Cell Line A549; read-out: MeB IC50.
In test [4] the test system is lung (H460) tumor cell line. Description: Methylene Blue Growth Inhibition Assay, H460. It is filed as cell-based. To be noted: Homo sapiens, NCI-H460, 72 h; Cell Line H460, 3 days; read-out: MeB IC50. In a few lines: as §2
The subject of test [5] is breast tumor (MCF7) cell line. The test is described as follows: Methylene Blue Growth Inhibition Assay, MCF7. To be noted: Homo sapiens, 72 h; Cell Line MCF7, 3 days; read-out: MeB IC50. It is filed as cell-based. In a few lines: as §1
For test [6], the system named is prostate (PC3) tumor cell line. Description: Methylene Blue Growth Inhibition Assay, PC3. It is filed as cell-based. To be noted: Homo sapiens, 72 h; Cell Line PC3, 3 days; read-out: MeB IC50. In a few lines:
as §1

T1 sequence (P53350 21-346): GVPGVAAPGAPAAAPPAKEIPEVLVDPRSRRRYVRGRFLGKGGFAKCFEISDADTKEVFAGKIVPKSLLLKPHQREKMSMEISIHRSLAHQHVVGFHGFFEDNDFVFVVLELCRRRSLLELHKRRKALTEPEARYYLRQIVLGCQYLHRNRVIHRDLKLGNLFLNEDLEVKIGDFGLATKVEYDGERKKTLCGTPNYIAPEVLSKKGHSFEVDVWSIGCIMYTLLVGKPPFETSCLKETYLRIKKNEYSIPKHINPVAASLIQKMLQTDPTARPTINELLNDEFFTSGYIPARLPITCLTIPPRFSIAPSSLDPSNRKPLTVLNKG

For `NC(=O)c1sc(-n2cnc3ccc(OCC4CCNCC4)cc32)cc1OCc1ccccc1C(F)(F)F` [Example 143, 5-{6-[(4-Piperidinylmethyl)oxy]-1H-benzimidazol-1-yl}-3-({[2-(trifluoromethyl)phenyl]-methyl}oxy)-2-thiophenecarboxamide], the IC50 in test [1] is less than 1000 nM; in test [2], 1000 to 10000 nM; on PLK1 kinase domain, less than 100 nM; in test [3] it was less than 1000 nM; in the test on A549, 1000 to 10000 nM; in test [4], 1000 to 10000 nM. Further, the results for the IC50 in test [5] and in test [6] were less than 1000 nM and 1000 to 10000 nM, respectively.

On to `COc1cc2c(cc1OCCCN1CCCC1=O)ncn2-c1cc(OCc2ccccc2C(F)(F)F)c(C(N)=O)s1` [Example 134, 5-(6-(Methyloxy)-5-{[3-(2-oxo-1-pyrrolidinyl)propyl]oxy}-1H-benzimidazol-1-yl)-3-({[2-(trifluoromethyl)phenyl]methyl}oxy)-2-thiophenecarboxamide], for which the IC50 was 1000 to 10000 nM in test [1]; greater than 10000 nM in test [2]; less than 100 nM on PLK1 kinase domain; 1000 to 10000 nM in test [3]; 1000 to 10000 nM in the test on A549; 1000 to 10000 nM in test [4]. Further, the results for the IC50 in test [5] and in test [6] were 1000 to 10000 nM and greater than 10000 nM, respectively.

Take `CS(=O)(=O)c1ccc2ncn(-c3cc(OCc4ccccc4C(F)(F)F)c(C(N)=O)s3)c2c1` [Example 121]: the IC50 was 1000 to 10000 nM in test [1]; greater than 10000 nM in test [2]; less than 100 nM on PLK1 kinase domain; 1000 to 10000 nM in test [3]; 1000 to 10000 nM in the test on A549; 1000 to 10000 nM in test [4]. For the same compound, the IC50 in test [5] is 1000 to 10000 nM; in test [6], greater than 10000 nM.

For the compound `COc1cc2ncn(-c3cc(OCc4ccncc4Br)c(C(N)=O)s3)c2cc1OC` [Example 120, 3-[(3-Bromopyridin-4-yl)methoxy]-5-(5,6-dimethoxy-1H-benzimidazol-1-yl)thiophene-2-carboxamide], the IC50 in test [1] was 1000 to 10000 nM; in test [2], greater than 10000 nM; at PLK1 kinase domain it was less than 100 nM; in test [3] it was less than 1000 nM; with A549 it was 1000 to 10000 nM; in test [4], 1000 to 10000 nM. Moreover, the IC50 in test [5] is 1000 to 10000 nM; in test [6], greater than 10000 nM.

Take `COc1cc2ncn(-c3cc(OCc4cccnc4Cl)c(C(N)=O)s3)c2cc1OC` [Example 101, 3-[(2-Chloropyridin-3-yl)methoxy]-5-(5,6-dimethoxy-1H-benzimidazol-1-yl)thiophene-2-carboxamide]: the IC50 in test [1] was 1000 to 10000 nM; in test [2] it was greater than 10000 nM; at PLK1 kinase domain, less than 100 nM; in test [3], less than 1000 nM; in the test on A549, 1000 to 10000 nM; in test [4] it was 1000 to 10000 nM. The IC50 in test [5] and in test [6] was 1000 to 10000 nM each time.

With `COc1cc2ncn(-c3cc(OCc4ccccc4OC(F)(F)F)c(C(N)=O)s3)c2cc1OC` [Example 107, 5-(5,6-Dimethoxy-1H-benzimidazol-1-yl)-3-{[2-(trifluoromethoxy)benzyl]oxy}thiophene-2-carboxamide], the IC50 in test [1] is 1000 to 10000 nM; in test [2] it was 1000 to 10000 nM; on PLK1 kinase domain it was less than 100 nM; in test [3], less than 1000 nM; in the test with A549, less than 1000 nM; in test [4], less than 1000 nM. The IC50 in test [5] and in test [6] was 1000 to 10000 nM each time.

On to `COc1cc2ncn(-c3cc(OCc4cccnc4F)c(C(N)=O)s3)c2cc1OC` [Example 102, 5-(5,6-Dimethoxy-1H-benzimidazol-1-yl)-3-[(2-fluoropyridin-3-yl)methoxy]thiophene-2-carboxamide], for which the IC50 in test [1] is 1000 to 10000 nM; in test [2], greater than 10000 nM; on PLK1 kinase domain, less than 100 nM; in test [3] it was less than 1000 nM; with A549, 1000 to 10000 nM; in test [4] it was 1000 to 10000 nM. In addition, the IC50 in test [5] is 1000 to 10000 nM; in test [6], greater than 10000 nM.

As to `COc1cc2ncn(-c3cc(OS(=O)(=O)c4ccccc4C)c(C(N)=O)s3)c2cc1OC` [Example 154, 2-(Aminocarbonyl)-5-(5,6-dimethoxy-1H-benzimidazol-1-yl)thien-3-yl-2-methylbenzenesulfonate], the IC50 was 1000 to 10000 nM in test [1]; greater than 10000 nM in test [2]; less than 100 nM on PLK1 kinase domain; less than 1000 nM in test [3]; less than 1000 nM with A549; less than 1000 nM in test [4]. The IC50 was less than 1000 nM in test [5] and greater than 10000 nM in test [6].

On to `NC(=O)c1sc(-n2cnc3ccc(OCCN4CCOCC4)cc32)cc1OCc1ccccc1C(F)(F)F` [Example 138, 5-[6-(2-Morpholin-4-ylethoxy)-1H-benzimidazol-1-yl]-3-{[2-(trifluoromethyl)benzyl]oxy}thiophene-2-carboxamide], for which the IC50 in test [1] is 1000 to 10000 nM; in test [2], 1000 to 10000 nM; at PLK1 kinase domain, less than 100 nM; in test [3] it was less than 1000 nM; in test [4], less than 1000 nM; in test [5] it was 1000 to 10000 nM. The IC50 in test [6] is greater than 10000 nM.

On to `COc1cc2ncn(-c3cc(OCc4ccccc4C(F)(F)F)c(C(N)=O)s3)c2cc1OC` [Example 63, 5-(5,6-Dimethoxy-1H-benzimidazol-1-yl)-3-{[2-(trifluoromethyl)-benzyl]oxy}thiophene-2-carboxamide], for which the IC50 in test [1] is less than 1000 nM; in test [2], 1000 to 10000 nM; on PLK1 kinase domain it was less than 100 nM; in test [3], less than 1000 nM; in test [4], less than 1000 nM; in test [5] it was less than 1000 nM. In addition, the IC50 in test [6] is 1000 to 10000 nM.

Take `COc1cc2ncn(-c3cc(OCc4c(Cl)cccc4Cl)c(C(N)=O)s3)c2cc1OC` [Example 64, 3-[(2,6-Dichlorobenzyl)oxy]-5-(5,6-dimethoxy-1H-benzimidazol-1-yl)thiophene-2-carboxamide]: the IC50 in test [1] is 1000 to 10000 nM; in test [2] it was greater than 10000 nM; at PLK1 kinase domain it was less than 100 nM; in test [3] it was 1000 to 10000 nM; in test [4] it was less than 1000 nM; in test [5], 1000 to 10000 nM. Besides, in test [6], the IC50 is greater than 10000 nM.

For `COc1ccc(COc2cc(-n3cnc4cc(OC)c(OC)cc43)sc2C(N)=O)cc1` [Example 128, 5-(5,6-Dimethoxy-1H-benzimidazol-1-yl)-3-[(4-methoxybenzyl)oxy]thiophene-2-carboxamide], the IC50 is greater than 10000 nM in test [1]; greater than 10000 nM in test [2]; 100 to 10000 nM on PLK1 kinase domain; 1000 to 10000 nM in test [3]; 1000 to 10000 nM in test [4]; 1000 to 10000 nM in test [5]. Moreover, the IC50 in test [6] was greater than 10000 nM.

As to `CS(=O)(=O)Nc1ccc2ncn(-c3cc(OCc4ccccc4C(F)(F)F)c(C(N)=O)s3)c2c1` [Example 122, 5-{6-[(Methylsulfonyl)amino]-1H-benzimidazol-1-yl}-3-{[2-(trifluoromethyl)benzyl]-oxy}thiophene-2-carboxamide], the IC50 in test [1] was 1000 to 10000 nM; in test [2], greater than 10000 nM; at PLK1 kinase domain, less than 100 nM; in test [3], 1000 to 10000 nM; in test [4], 1000 to 10000 nM; in test [5], 1000 to 10000 nM. In addition, the IC50 in test [6] was greater than 10000 nM.

Turning to `Cc1ccccc1COc1cc(-n2cnc3ccc(Cl)cc32)sc1C(N)=O` [Example 61], the IC50 in test [1] is 1000 to 10000 nM; in test [2], greater than 10000 nM; at PLK1 kinase domain it was less than 100 nM; in test [3], 1000 to 10000 nM; in test [4], 1000 to 10000 nM; in test [5] it was 1000 to 10000 nM. Also, the IC50 in test [6] was greater than 10000 nM.

On to `COc1cc2ncn(-c3cc(OCc4ccccc4C(F)(F)F)c(C(N)=O)s3)c2cc1OCCCN(C)C` [Example 135, 5-[6-{[3-(Dimethylamino)propyl]oxy}-5-(methyloxy)-1H-benzimidazol-1-yl]-3-({[2-(trifluoromethyl)phenyl]methyl}oxy)-2-thiophenecarboxamide], for which the IC50 in test [1] was less than 1000 nM; in test [2] it was 1000 to 10000 nM; on PLK1 kinase domain it was less than 100 nM; in test [3], less than 1000 nM; in test [4], less than 1000 nM; in test [5], less than 1000 nM. Moreover, the IC50 in test [6] lay within 1000 to 10000 nM.

For the compound `COc1cc2ncn(-c3cc(OCc4ccccc4C(O)CO)c(C(N)=O)s3)c2cc1OC` (stereo not shown) [Example 109], the IC50 in test [1] is greater than 10000 nM; in test [2], greater than 10000 nM; at PLK1 kinase domain, 100 to 10000 nM; in test [3], greater than 10000 nM; in test [4], greater than 10000 nM; in test [5], greater than 10000 nM. Besides, the IC50 in test [6] was greater than 10000 nM.

On to `COc1cc2ncn(-c3cc(OC(C)c4ccccc4Cl)c(C(N)=O)s3)c2cc1OC` (stereo not shown) [Example 126, 3-[1-(2-Chlorophenyl)ethoxy]-5-(5,6-dimethoxy-1H-benzimidazol-1-yl)thiophene-2-carboxamide], for which the IC50 was less than 1000 nM in test [1]; less than 1000 nM in test [2]; less than 1000 nM in test [3]; less than 1000 nM in the test with A549; less than 1000 nM in test [4]; 1000 to 10000 nM in test [5]. Further, the IC50 in test [6] was in the range of 1000 to 10000 nM.
